Measured values taken from patent US12709637B2, “Regulated synthetic gene activation systems” (TRUSTEES OF BOSTON UNIVERSITY, priority 2023, dated 2026).
Entries after “also recorded” stand apart in the source; their conditions may differ.

How the values were obtained:
[1] = test system: mCherry fluorescent reporter in Jurkat T cells; experiment: hhTAD transcription activators, mCherry reporter in Jurkat T cells; format: cell-based; details: 1 uM GZV or 4-OHT, 72h, compared with p65 and VPR counterparts
From the text: FIG. 6A is a schematic and bar graph showing that the IWS1 TIMs domain increases transcriptional activation in an NS3-comprising synTF in the presence of grazoprevir. FIG. 6B is a schematic and bar graph showing that the IWS1 TIMs domain increases transcriptional activation in an ERT2-comprising synTF in the presence of 4OHT.
The humanized hybrid transcription activator domain (see e.g., SEQ ID NOs: 15-16) when integrated into small-molecule inducible transcriptional activation systems is able to robustly and strongly induce transgene expression in mammalian cells. The humanized hybrid transcription activation domain (hhTAD) was attached to an artificial zinc finger proteins (see e.g., U.S. Pat. No. 10,138,493 B2 and US Patent Publication No. 2020/0377564 A1; the contents of each of which are incorporated herein by reference in their entirety) to either a NS3 or ERT2 domain (see e.g., FIG. 5A). To report transcriptional activation, described herein is a […] mCherry fluorescent reporter (see e.g., FIG. 5B). […]
To evaluate the strength of this hhTAD, Jurkat T cells were generated stably expressing both the transcription activator(s) modified with the hhTAD and fluorescent reporter. […] Reporter cells with were treated 1 uM GZV or 4-OHT, and mCherry reporter fluorescence was measured at 72h (see e.g., FIG. 6A-6B).

[2] = test system: mCherry reporter in Jurkat T cells; experiment: Loss of function TIMs mutants in GZV-synZiFTR2.0; format: cell-based; details: GZV induction, 3 days, compared to GZV-synZiFTR2.0 carrying WT TIMs
From the text: FIG. 4A-4B. IWS1 TIMs mechanism of action. (FIG. 4A) IWS1 mutants affecting TIMs employed in this study. WT TIMs domain in GZV-synZiFTR2.0 were replaced by TIMs structural mutant variants (see e.g., SEQ ID NOs: 5-14). The amino acid sequence of the TIMs domain is shown (see e.g., SEQ ID NO: 5). The boxes highlight each of the 3 TIM amino acid sequences (see e.g., SEQ ID NOs: 6-8) and the mutants respectively (see e.g., SEQ ID NOs: 12-14). Different TIM mutations caused loss of interactions with various transcription elongation factors (Transcription factor IIS (TFIIS) and Elongin A (EloA) for the TIM1 mutant; Protein Phosphatase 1 Nuclear Targeting Subunit (PP1-PNUTs) for the TIM2 mutant; lens epithelium-derived growth factor (LEDGF) and H3K36me2/3 binding protein HDGFL2 (HRP2) for the TIM3 mutant). Figure discloses SEQ ID NOS 5-6, 12, 6, 6-7, 7, 13, 7-8, 8, 8, and 14, respectively, in order of appearance. (FIG. 4B) Evaluating loss of function TIMs mutations. GZV-synZiFTR2.04 distinct mutant variants of TIMs were expressed in Jurkat T cells. The circuit outputs were compared to GZV-synZiFTR2.0 carrying WT TIMs. Jurkat T cells were co-transduced with reporter, synZiFTR2.0 and synZiFTR expression lentiviral vectors in an equal ratio. mCherry fluorescence was measured by flow cytometry 3 days after induction by small molecules at the indicated concentrations. Bars represent mean values for three measurements±SD. Statistics represent two-tailed Student's t test; ****P<0.0001.
The TIMs domain contains a series of three unique TIMs that selectively interact with different TND-containing factors. TIM1 interacts with Transcription Factor IIS (TFIIS) and Elongin A (EloA), TIM2 is recognized by the PP1-PNUTS phosphatase, and finally the H3K36me3 readers, lens epithelium-derived growth factor (LEDGF), and H3K36me2/3 binding protein HDGFL2 (HRP2) bind to TIM3. Here, it was investigated which direct interactions between each TIMs and their protein partner is involved in the enhanced transcriptional output by synZiFTR2.0s. […]

iCasp9+ cells = details: cited from earlier work
[3] = among 2A peptides; cited from earlier work

## IWS1 TIMs domain: amino acids 449-492 of IWS1, SEQ ID NO: 5, 44 aa; transcriptional effector domain
[1]
  mCherry reporter fluorescence: increases their transcriptional activation

## M1: TIM1 mutant, L458A and F459A, SEQ ID NO: 9, in GZV-synZiFTR2.0 (SDKKNEEKDAAGSDSESGNEEENLIADIFGESGDEEEEEFTGFN)
[2]
  mCherry fluorescence output: did not affect GZV-synZiFTR2.0 output

## M2: TIM2 mutant, I476A and F477A, SEQ ID NO: 10, in GZV-synZiFTR2.0 (SDKKNEEKDLFGSDSESGNEEENLIADAAGESGDEEEEEFTGFN)
[2]
  mCherry fluorescence output: ablated the mCherry fluorescence output by TIMs-p65 fusion

## CC[C@H](C(=O)N1CCCC[C@H]1C(=O)O[C@H](CCc1ccc(OC)c(OC)c1)c1cccc(OCC(=O)NCCNC(=O)COc2cccc([C@@H](CCc3ccc(OC)c(OC)c3)OC(=O)[C@@H]3CCCCN3C(=O)[C@@H](CC)c3cc(OC)c(OC)c(OC)c3)c2)c1)c1cc(OC)c(OC)c(OC)c1 [AP1903]
iCasp9+ cells; patients receiving iCasp9 T cells
  GvHD outcome after AP1903: complete reversal of GvHD; also recorded: Two of the four patients
iCasp9+ cells; phase I trial, four patients with acute GvHD, within 30 minutes of administration
  reduction in iCasp9+ cells: 90%

## P2A: 2A self-cleaving peptide derived from porcine teschovirus-1 2A, SEQ ID NO: 341 (GSGATNFSLLKQAGDVEENPGP; VARIANT 1..3 May be absent)
[3]
  efficiency of self-cleaving: most efficient

## M3: TIM3 mutant, F488A and F491A, SEQ ID NO: 11, in GZV-synZiFTR2.0 (SDKKNEEKDLFGSDSESGNEEENLIADIFGESGDEEEEEATGAN)
[2]
  mCherry fluorescence output: did not affect GZV-synZiFTR2.0 output
